Measured values: patent US20050009924A1 (priority 2003, published 2005)

Legend:
[1] = MTT relative viability, PhTERT-SEAP (H1299) cells; conditions: human
rat glioma C6 cells = assay: Cytotoxicity assay (XTT colorimetric), C6 cells; type: cell-based; conditions: Rattus norvegicus, C6; 48 h of drug exposure
human hepatoma G2 cells = assay: Cytotoxicity assay (XTT colorimetric), Hep G2; type: cell-based; conditions: Homo sapiens, HepG2; 48 h of drug exposure
[2] = system: transcriptional activity of hTERT; assay: SEAP reporter assay of hTERT expression, PhTERT-SEAP (hTERT-BJ1); type: cell-based, human; conditions: PhTERT-SEAP (hTERT-BJ1)
Summary of the method: (§1)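 Read-out: rate of absorbance rise at 405 nm from p-nitrophenyl phosphate (12 mM final) hydrolysis by secreted alkaline phosphatase in heat-treated (65° C, 10 min) culture medium. Drugs at varying amounts were applied for 24 h after a 24 h pre-culture at 37° C.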

[3] = MTT relative viability, PhTERT-SEAP (hTERT-BJ1) cells; conditions: human
Experimental: The tetrazolium reagent (MTT; 3-(4,5-di-methylthiazol)-2,5-diphenyl tetrazolium bromide, USB) was designed to yield a colored formazan upon metabolic reduction by viable cells. Approximately […] cells were plated onto each well of a 96-well plate and incubated in 5% CO2 at 37° C. for 24 h. To assess the in vitro cytotoxicity, each compound was dissolved in DMSO and prepared immediately before the experiments and was diluted into the complete medium before addition to cell cultures. Test compounds were then added to the culture medium for designated various concentrations. After 48 h, an amount of 25 μL of MTT was added to each well, and the samples were incubated at 37° C. for 4 h. A 100 μL solution of lysis buffer containing 20% SDS and 50% N,N-dimethylformamide was added to each well and incubated at 37° C. for another 16 h. The absorbency at 550 nm was measured using an ELISA reader.
Non small lung cancer cells H1299 (telomerase positive) were grown in RPMI 1640 media supplemented with 10% fetal bovine serum, 100 units/mL penicillin and 100 mg/mL streptomycin in a humidified atmosphere with 5% CO2 at 37° C. The hTERT immortalized hTERT-BJ1 (BD Biosciences Clontech)^39 were grown in DMEM media supplemented with 10% fetal calf serum, 100 units/mL penicillin and 100 mg/mL streptomycin, 1 mM sodium pyruvate, and 4 mM I-arginine in a humidified atmosphere with 5% CO2 at 37° C. Culture media were changed every 3 days. […] The stable clones derived from H1299 or hTERT-BJ1 were cultured using conditions that are similar to their parental cells.

[4] = system: hepatitis B virus transfected hepatoma cell lines, HepG 2.2.15 cells; assay: Cytotoxicity assay, 2.2.15 cells; type: cell-based, human; conditions: Homo sapiens, HepG2.2.15; 48 h of drug exposure
[5] = system: transcriptional activity of hTERT; assay: SEAP reporter assay of hTERT expression, PhTERT-SEAP (H1299); type: cell-based, human; conditions: PhTERT-SEAP(hTERT-H1299)
Summary of the method: as §1

[6] = hTERT-BJ1 cells stably transfected with PhTERT-SEAP reporter
[7] = hTERT-BJ1 cells, stable PhTERT-SEAP reporter clone
[8] = Homo sapiens, 2.3 μM, read-out: Relative SEAP activity (%)
[9] = Homo sapiens, 23 μM, read-out: Relative SEAP activity (%)
[10] = Homo sapiens, 238 μM, read-out: Relative SEAP activity (%)
[11] = Homo sapiens, NCI-H1299, 2.3 μM, read-out: Relative SEAP activity (%)
[12] = Homo sapiens, NCI-H1299, 23 μM, read-out: Relative SEAP activity (%)
[13] = Homo sapiens, NCI-H1299, 238 μM, read-out: Relative SEAP activity (%)

Row | SMILES | IC50 (rat glioma C6 cells) [µM] | IC50 (human hepatoma G2 cells) [µM] | melting point [°C] | IC50 [4] [µM] | viability at 48 h, 2.3 µM [1] [%] | viability at 48 h, 23 µM [1] [%] | viability at 48 h, 238 µM [1] [%] | SEAP/vibility ([2]; 2.3 μM) | SEAP/vibility ([2]; 23 μM) | SEAP/vibility ([2]; 238 μM) | activity at 2.3 µM [2, 8] [%] | activity at 23 µM [2, 9] [%] | activity at 238 µM [2, 10] [%] | viability at 48 h, 2.3 µM [3, 7] [%] | viability at 48 h, 23 µM [3, 7] [%] | viability at 48 h, 238 µM [3, 7] [%] | SEAP/vibility ([5]; 2.3 μM) | SEAP/vibility ([5]; 23 μM) | SEAP/vibility ([5]; 238 μM) | activity at 2.3 µM [5, 11] [%] | also measured
1 | O=C(CCl)Nc1ccc(NC(=O)CCl)c2c1C(=O)c1ccccc1C2=O [VI1, 1,4-Bis(chloroacetamido)-9,10-anthracenedione] | > 20 | > 20 | 285 to 287 | > 20 |  |  |  |  |  |  |  |  |  |  |  |  |  |  |  |  | viability at 48 h, 2.5 µM [1]: 104 ± 5.5%; viability at 48 h, 25 µM [1]: 96 ± 3.8%; viability at 48 h, 255 µM [1]: 21 ± 1.5%; SEAP/vibility ([2]; 2.5 μM): 1.23; SEAP/vibility ([2]; 25 μM): 1.53; SEAP/vibility ([2]; 255 μM): 2.76; activity at 2.5 µM ([2]; Homo sapiens, 2.5 μM, read-out: Relative SEAP activity (%)): 123 ± 16.8%; activity at 25 µM ([2]; Homo sapiens, 25 μM, read-out: Relative SEAP activity (%)): 129 ± 17.7%; activity at 255 µM ([2]; Homo sapiens, 255 μM, read-out: Relative SEAP activity (%)): 121 ± 10.9%; viability at 48 h, 2.5 µM [3, 6]: 101 ± 2.7%; viability at 48 h, 25 µM [3, 6]: 84 ± 6.3%; viability at 48 h, 255 µM [3, 7]: 44 ± 4.7%; SEAP/vibility ([5]; 2.5 μM): 0.98; SEAP/vibility ([5]; 25 μM): 1.14; SEAP/vibility ([5]; 255 μM): 4.66; activity at 2.5 µM ([5]; Homo sapiens, NCI-H1299, 2.5 μM, read-out: Relative SEAP activity (%)): 102 ± 5.3%; activity at 25 µM ([5]; Homo sapiens, NCI-H1299, 25 μM, read-out: Relative SEAP activity (%)): 110 ± 8.8%; activity at 255 µM ([5]; Homo sapiens, NCI-H1299, 255 μM, read-out: Relative SEAP activity (%)): 97 ± 7.1%
2 | O=C(CCCl)Nc1ccc(NC(=O)CCCl)c2c1C(=O)c1ccccc1C2=O [VI7, 1,4-Bis(3-chloropropionamido)-9,10-anthracenedione] | > 20 | > 20 | 230 to 231 | > 20 | 99 ± 6 | 68 ± 2.4 | 30 ± 3.8 | 0.36 | 0.48 | 0.23 | 36 ± 12.1 | 40 ± 10.8 | 14 ± 11.8 | 102 ± 4.1 | 82 ± 8.2 | 60 ± 2.5 | 0.88 | 1.28 | 2.30 | 87 ± 2.3 | activity at 23 µM [5, 12]: 87 ± 3.1%; activity at 238 µM [5, 13]: 68 ± 5.3%
3 | CC(Cl)C(=O)Nc1ccc(NC(=O)C(C)Cl)c2c1C(=O)c1ccccc1C2=O (stereo not drawn) [VI9, 1,4-Bis(2-chloropropionamido)-9,10-anthracenedione] | > 20 | > 20 | 233 to 235 | > 20 | 111 ± 5.5 | 77 ± 3.4 | 11 ± 1.4 | 0.97 | 1.49 | 1.68 | 91 ± 10.8 | 101 ± 8.4 | 81 ± 8.5 | 94 ± 10.4 | 68 ± 8.2 | 48 ± 2.3 | 0.96 | 1.40 | 7.82 | 106 ± 5.5 | activity at 23 µM [5, 12]: 109 ± 1%; activity at 238 µM [5, 13]: 85 ± 5.3%
